In patent US10668040B2, “Treatment of urea cycle disorders in neonates and infants” (Horizon Therapeutics, LLC, priority 2017, dated 2020):

What was measured:
[1] = Example 3: plasma PBA, PAA, PAGN PK on first full day of RAVICTI dosing; assay type: in vivo, human
Experimental: (§1) Pharmacokinetic (PK) Evaluable Population: all subjects from the safety population with individual concentration-time profiles that allow computation of meaningful PK parameter values. Measurements were taken at hour 0, between 4 and 6 hours, 8 hours, and between 12 and 24 hours after the first dose of the day on day 1 for stable subjects and on day 2 for subjects in HAC.
as §1, with “PK” for “Pharmacokinetic (PK)”

UCD patients [2] = conditions: 4 patients aged 2 months to 2 years; cited from earlier work
UCD patients [3] = assay: HPN-100-009 (Example 2): treatment-emergent, serious and non-serious adverse events; assay type: in vivo, human; conditions: Age 2 Months to <2 Years
Text: Number of Subjects with Treatment-Emergent Adverse Events (TEAEs), Serious TEAEs, Deaths, and Discontinuations Due to TEAEs.
End point description. An adverse event (AE) was any untoward medical occurrence, whether or not the event is considered related to the study drug. […] TEAEs were defined as AEs with an onset date on or after the first dose of study medication until study discontinuation. The Investigator assessed the causal relationship of each TEAE to the study drug as not related, possibly related, or probably related. Safety population: all enrolled subjects who received any amount of study medication. End point timeframe: up to 370 days.
Adverse Events Information.
Timeframe for reporting adverse events: From first dose of study treatment up to 370 days (data cutoff); median (full range) duration of treatment was 4.68 (0.2 to 10.9) months. Adverse event reporting additional description: TEAEs (defined as AEs with an onset date on or after the first dose of study medication until study discontinuation) are presented.

[4] = Example 3: urinary PAGN concentrations (first full day and up to end of trial); assay type: in vivo, human
Experimental: Urinary PAGN Concentrations on the First Full Day of RAVICTI Dosing
PK Evaluable Population: all subjects from the safety population with individual concentration-time profiles that allow computation of meaningful PK parameter values. Measurements were taken at hour 0, between 0.5 and 1.5 hours, between 1.5 and 2.5 hours, between 4 and 6 hours, between 7.5 and 8.5 hours, and between 12 and 24 hours after the first dose of the day on day 1 for stable subjects and on day 2 for subjects in HAC.
Urinary PAGN Concentrations Up to End of Trial
PK Evaluable Population: all subjects from the safety population with individual concentration-time profiles that allow computation of meaningful PK parameter values. Measurements were taken at day 7, month 1, month 2, month 3, month 4, month 5, month 6, month 9, month 12, month 15, month 18, month 24, and at the end of the trial.

[5] = aged 0 to 2 months, 16 subjects
[6] = aged 2 months and up to 2 years, 10 subjects

## O=C(CCCc1ccccc1)OCC(COC(=O)CCCc1ccccc1)OC(=O)CCCc1ccccc1 [RAVICTI, benzenebutanoic acid, 1′,1″-(1,2,3-propanetriyl) ester]
[1]; aged 0 to 2 months, 7 subjects
  Plasma PBA mean Cmin: 4.8 (±4.2) μg/mL
[1]; aged 0 to 2 months, 10 subjects
  mean plasma PAA Cmin: 98.98 (±122.07) μg/mL
[1]; aged 0 to 2 months, 13 subjects
  mean plasma PAGN Cmin: 69.39 (±54.03) μg/mL
[1]; [5]
  Plasma PBA mean AUC[0-last]: 374.53 (±390.48) μg*hr/mL
  Plasma PBA mean Cmax: 46.2 (±49.8) μg/mL
  Plasma PBA mean Tmax: 9.39 (±7.41) hr
  mean plasma PAA AUC(0-last): 1321.18 (±1220.52) μg*hr/mL
  mean plasma PAA Cmax: 115.3 (±102.0) μg/mL
  mean plasma PAA Tmax: 9.85 (±9.26) hr
  mean plasma PAGN AUC(0-last): 1384.12 (±1141.03) μg*hr/mL
  mean plasma PAGN Cmax: 102.1 (±48.6) μg/mL
  mean plasma PAGN Tmax: 11.72 (±8.24) hr
[1]; [6]
  Plasma PBA mean AUC[0-last]: 280.936 (±293.553) μg*hr/mL
  Plasma PBA mean Cmax: 42.11 (±36.715) μg/mL
  Plasma PBA mean Cmin: 1.697 (±2.254) μg/mL
  Plasma PBA mean Tmax: 8.383 (±4.564) hr
  mean plasma PAA AUC(0-last): 246.126 (±238.547) μg*hr/mL
  mean plasma PAA Cmax: 36.52 (±31.784) μg/mL
  mean plasma PAA Cmin: 4.197 (±6.434) μg/mL
  mean plasma PAA Tmax: 7.422 (±7.351) hr
  mean plasma PAGN AUC(0-last): 583.835 (±285.241) μg*hr/mL
  mean plasma PAGN Cmax: 62.45 (±27.281) μg/mL
  mean plasma PAGN Cmin: 20.62 (±14.529) μg/mL
  mean plasma PAGN Tmax: 6.573 (±7.181) hr
UCD patients [2]
  PAA exposure, 24-hour area under the curve, vs NaPBA: very similar
  mean ammonia exposure, 24-hour area under the curve, vs NaPBA: non-inferior
UCD patients [3]
  Non-serious AE Anaemia: Occurrences (All): 1
  Non-serious AE Apnoeic Attack: Occurrences (All): 1
  Non-serious AE Cough: Occurrences (All): 1
  Non-serious AE Deep Vein Thrombosis: Occurrences (All): 1
  Non-serious AE Diarrhoea: Occurrences (All): 1
  Non-serious AE Gross Motor Delay: Occurrences (All): 1
  Non-serious AE Hypophagia: Occurrences (All): 1
  Non-serious AE Infections (Gastroenteritis): Occurrences (All): 1
  Non-serious AE Infections (Nasopharyngitis): Occurrences (All): 1
  Non-serious AE Infections (Upper Respiratory Tract): Occurrences (All): 4
  Non-serious AE Infections (Urinary Tract): Occurrences (All): 1
  Non-serious AE Infections (Viral): Occurrences (All): 1
  Non-serious AE Metabolic Acidosis: Occurrences (All): 1
  Non-serious AE Nail Ridging: Occurrences (All): 1
  Non-serious AE Rash: Occurrences (All): 2
  Non-serious AE Rhinorrhoea: Occurrences (All): 1
  Non-serious AE Stoma Site Reaction: Occurrences (All): 1
  Non-serious AE Teething: Occurrences (All): 1
  Non-serious AE Tibia Fracture: Occurrences (All): 1
  Non-serious AE Vesicoureteric Reflux: Occurrences (All): 1
  Non-serious AE Vomiting: Occurrences (All): 3
  Number of Deaths (All Causes): 1
  Serious AE Apnoeic Attack: Deaths Causally Related to Treatment/All: 0/0
  Serious AE Apnoeic Attack: Occurrences Causally Related to Treatment/All: 0/2
  Serious AE Hyperammonaemia: Deaths Causally Related to Treatment/All: 0/0
  Serious AE Hyperammonaemia: Occurrences Causally Related to Treatment/All: 0/8
  Serious AE Infections (Croup): Deaths Causally Related to Treatment/All: 0/0
  Serious AE Infections (Croup): Occurrences Causally Related to Treatment/All: 0/1
  Serious AE Infections (Gastroenteritis): Deaths Causally Related to Treatment/All: 0/0
  Serious AE Infections (Gastroenteritis): Occurrences Causally Related to Treatment/All: 0/1
  Serious AE Infections (Urinary Tract): Deaths Causally Related to Treatment/All: 0/0
  Serious AE Infections (Urinary Tract): Occurrences Causally Related to Treatment/All: 0/1
  Serious AE Infections (Viral): Deaths Causally Related to Treatment/All: 0/0
  Serious AE Infections (Viral): Occurrences Causally Related to Treatment/All: 0/1
  Serious AE Pneumatosis: Deaths Causally Related to Treatment/All: 0/1
  Serious AE Pneumatosis: Occurrences Causally Related to Treatment/All: 0/1
UCD patients [3]; 10 analyzed, up to 370 days
  Subjects with fatal outcome TEAE: 1 Subjects
  Subjects with ≥1 Related TEAE: 4 Subjects
  Subjects with ≥1 Serious Related TEAE: 0 Subjects
  Subjects with ≥1 Serious TEAE: 6 Subjects
  Subjects with ≥1 TEAE: 10 Subjects
  Subjects with ≥1 TEAE Leading to Study Discontinuation: 1 Subjects
[4]; Age 0 to <2 months, Day 7
  Urinary PAGN concentration: 4643 (±2506); μg/mL
[4]; Age 0 to <2 months, End of trial
  Urinary PAGN concentration: 6939 (±6581); μg/mL
[4]; Age 0 to <2 months, Month 1
  Urinary PAGN concentration: 4517 (±2485), μg/mL
[4]; Age 0 to <2 months, Month 2
  Urinary PAGN concentration: 4116 (±3137); μg/mL
[4]; Age 0 to <2 months, Month 3
  Urinary PAGN concentration: 7037 (±4493); μg/mL
[4]; Age 0 to <2 months, Month 4
  Urinary PAGN concentration: 2826 (±1543); μg/mL
[4]; Age 0 to <2 months, Month 5
  Urinary PAGN concentration: 6973 (±3682); μg/mL
[4]; Age 0 to <2 months, Month 6
  Urinary PAGN concentration: 5883 (±3128); μg/mL
[4]; Age 0 to <2 months, Month 9
  Urinary PAGN concentration: 7006 (±4289); μg/mL
[4]; Age 0 to <2 months, Month 12
  Urinary PAGN concentration: 5847 (±2992); μg/mL
[4]; Age 0 to <2 months, Month 15
  Urinary PAGN concentration: 3915 (±2584); μg/mL
[4]; Age 0 to <2 months, first full day, 0.5 to 1.5 hours
  Urinary PAGN concentration: 1828 (±2862); μg/mL
[4]; Age 0 to <2 months, first full day, 1.5 to 2.5 hours
  Urinary PAGN concentration: 1746 (±1464); μg/mL
[4]; Age 0 to <2 months, first full day, 4 to 6 hours
  Urinary PAGN concentration: 2260 (±1472); μg/mL
[4]; Age 0 to <2 months, first full day, 7.5 to 8.5 hours
  Urinary PAGN concentration: 3530.43 (±3600.4), μg/mL
[4]; Age 0 to <2 months, first full day, 12 to 24 hours
  Urinary PAGN concentration: 4404 (±3766); μg/mL
[4]; Age 0 to <2 months, first full day, Hour 0
  Urinary PAGN concentration: 3530.43 (±3600.4); μg/mL
[4]; Age 2 months to <2 years, Day 7
  Urinary PAGN concentration: 8859 (±10500); μg/mL
[4]; Age 2 months to <2 years, End of trial
  Urinary PAGN concentration: 25333 (±21324); μg/mL
[4]; Age 2 months to <2 years, Month 1
  Urinary PAGN concentration: 6274 (±4802); μg/mL
[4]; Age 2 months to <2 years, Month 2
  Urinary PAGN concentration: 7386 (±6419); μg/mL
[4]; Age 2 months to <2 years, Month 3
  Urinary PAGN concentration: 11456 (±14471); μg/mL
[4]; Age 2 months to <2 years, Month 4
  Urinary PAGN concentration: 21416 (±33695); μg/mL
[4]; Age 2 months to <2 years, Month 5
  Urinary PAGN concentration: 6129 (±8024); μg/mL
[4]; Age 2 months to <2 years, Month 6
  Urinary PAGN concentration: 5347 (±3153); μg/mL
[4]; Age 2 months to <2 years, Month 9
  Urinary PAGN concentration: 9357 (±7286); μg/mL
[4]; Age 2 months to <2 years, Month 12
  Urinary PAGN concentration: 2580 (±286); μg/mL
[4]; Age 2 months to <2 years, Month 15
  Urinary PAGN concentration: 6400 (±00000); μg/mL
[4]; Age 2 months to <2 years, Month 18
  Urinary PAGN concentration: 5250 (±00000); μg/mL
[4]; Age 2 months to <2 years, first full day, 0.5 to 1.5 hours
  Urinary PAGN concentration: 4140 (±4399); μg/mL
[4]; Age 2 months to <2 years, first full day, 1.5 to 2.5 hours
  Urinary PAGN concentration: 3145 (±5045); μg/mL
[4]; Age 2 months to <2 years, first full day, 4 to 6 hours
  Urinary PAGN concentration: 5202 (±4547); μg/mL
[4]; Age 2 months to <2 years, first full day, 7.5 to 8.5 hours
  Urinary PAGN concentration: 3950 (±3068); μg/mL
[4]; Age 2 months to <2 years, first full day, 12 to 24 hours
  Urinary PAGN concentration: 7561 (±6956); μg/mL
[4]; Age 2 months to <2 years, first full day, Hour 0
  Urinary PAGN concentration: 3273 (±1993); μg/mL
